Source: patent publication US5876694A, “Azavesamicols” (priority 1997, dated 1999)

Columns and labels:
vesicular ACh transport = conditions: earlier studies; cited from earlier work
vesamicol receptor [1] = conditions: cited from earlier work; for vesamicol receptor affinity (in words): earlier studies
vesamicol receptor [2] = conditions: rodent brain, cited from earlier work
[3] = Tissue distribution of radiotracer in rats; type: in vivo, male Wistar rats
Protocol: Tissue Distribution Experiments
Four groups of male Wistar rats (n=4) weighing 200-350 g were used in these experiments. Each animal received, while under ether anesthesia, an intravenous injection of the radiotracer (3-5 uCi) dissolved in 0.1 mL of 50% aqueous ethanol. At 5, 30, 60 and 180 min post-injection, blood was collected from the anesthetized animal by cardiac puncture, and the animal was immediately sacrificed by cardiectomy. The organs and tissues of interest were harvested, transferred to preweighed tubes and counted in a Beckman gamma counter. The tubes were subsequently reweighed to give the weight of the corresponding tissues. Preweighed tubes containing 1 mL samples of a 1:100 dilution of the injected dose were also counted and used as reference for calculating the tissue accumulation of radioactivity. The accumulation of radiotracer was expressed as a percentage of injected dose per gram of tissue.
The animals were injected intravenously with 4.9 uCi of the radiotracer i
0.1 ml of 50% aq. EtOH.
The animals were injected with 3.7 uCi of the radiotracer in 0.1 ml of 50

vesamicol receptor [4] = assay: Ex vivo autoradiography of rat brain; type: in vivo, male Wistar rats; conditions: 3 hrs after iv
Protocol: Ex-vivo Autoradiographic Studies
Two groups of male Wistar rats (n=2) were used in these experiments. Each animal in the first group received an i.v. injection of (+)-[^125 I]12h (385 uCi in 0.1/ml of 50% aq. EtOH). Similarly, animals in the second group received 330 uCi of (-)-[^125 I]12h (in 0.1 ml of 50% aq. EtOH). After 3 hrs, the animals were sacrificed by decapitation. The brains were carefully removed, embedded in Tissue Tek OCT medium and frozen to […] Twenty micron thick coronal brain slices were subsequently obtained by sectioning rostrocaudally with a Reichert HistoSTAT microtome at -15°. The tissue sections were apposed to Kodak NMC film accompanied by ^125 I-labeled external standards (^125 I-Microscales from Amersham). For delineation of cytoarchitecture, adjacent tissue sections were subjected to Nissl staining.

## O[C@@H]1Cc2ccccc2C[C@H]1N1CCC(c2ccccc2)CC1 (relative stereo) [Compound 2a]
Vesicular ACh transport
  inhibition of vesicular ACh transport / activity (in words): potent inhibitors of vesicular ACh transport
Vesamicol receptor [1]
  vesamicol receptor affinity (in words): potent ligands

## Nc1cccc2c1C[C@@H](N1CCC(c3ccccc3)CC1)[C@H](O)C2 (relative stereo) [Compound 2b]
Vesicular ACh transport
  inhibition of vesicular ACh transport / activity (in words): potent inhibitors of vesicular ACh transport
Vesamicol receptor [1]
  vesamicol receptor affinity (in words): potent ligands

## O[C@@H]1CCCC[C@H]1N1CCC(c2ccccc2)CC1 (relative stereo) [[^3 H]vesamicol]
Vesamicol receptor [2]; lesion
  cortical [^3 H]vesamicol binding after lesioning a known cholinergic pathway (in words): significant decrease
Vesamicol receptor [2]
  [^3 H]vesamicol distribution versus other cholinergic markers (in words): correlate well with other markers of cholinergic innervation

## OC1CCN(Cc2cccc([125I])c2)CC1N1CCC(c2ccccc2)CC1 (stereo not drawn) [(+)-[^125 I]12h, (+)- and (-)-4-hydroxy-1-(3-[I^125]iodobenzyl)-3-(4-phenyl-piperidinyl)piperidine]
[3]; 5 min, iv
  Ratio brain/blood: 2.33
  Ratio heart/blood: 4.68
  Tissue distribution, blood: 0.24 % dose/g of tissue
  Tissue distribution, brain: 0.57 % dose/g of tissue
  Tissue distribution, gonads: 0.13 % dose/g of tissue
  Tissue distribution, heart: 1.14 % dose/g of tissue
  Tissue distribution, kidney: 2.25 % dose/g of tissue
  Tissue distribution, liver: 1.60 % dose/g of tissue
  Tissue distribution, lung: 3.67 % dose/g of tissue
  Tissue distribution, muscle: 0.34 % dose/g of tissue
  Tissue distribution, spleen: 0.76 % dose/g of tissue
  Tissue distribution, thyroid: 1.60 % dose/g of tissue
  radioactivity in liver, heart, thyroid and spleen (in words): Moderate to low levels
  radioactivity in lung and kidney (in words): high levels of radioactivity
[3]; 5 min post-injection, iv
  radioactivity in brain: 1.06 % of the injected dose
[3]; 30 min, iv
  Ratio brain/blood: 3.18
  Ratio heart/blood: 2.33
  Tissue distribution, blood: 0.12 % dose/g of tissue
  Tissue distribution, brain: 0.36 % dose/g of tissue
  Tissue distribution, gonads: 0.15 % dose/g of tissue
  Tissue distribution, heart: 0.26 % dose/g of tissue
  Tissue distribution, kidney: 1.32 % dose/g of tissue
  Tissue distribution, liver: 2.18 % dose/g of tissue
  Tissue distribution, lung: 1.21 % dose/g of tissue
  Tissue distribution, muscle: 0.16 % dose/g of tissue
  Tissue distribution, spleen: 1.07 % dose/g of tissue
  Tissue distribution, thyroid: 2.33 % dose/g of tissue
[3]; 60 min, iv
  Ratio brain/blood: 3.08
  Ratio heart/blood: 1.70
  Tissue distribution, blood: 0.09 % dose/g of tissue
  Tissue distribution, brain: 0.27 % dose/g of tissue
  Tissue distribution, gonads: 0.17 % dose/g of tissue
  Tissue distribution, heart: 0.15 % dose/g of tissue
  Tissue distribution, kidney: 0.87 % dose/g of tissue
  Tissue distribution, liver: 1.91 % dose/g of tissue
  Tissue distribution, lung: 0.82 % dose/g of tissue
  Tissue distribution, muscle: 0.11 % dose/g of tissue
  Tissue distribution, spleen: 0.86 % dose/g of tissue
  Tissue distribution, thyroid: 4.59 % dose/g of tissue
[3]; 60 min post-injection, iv
  radioactivity in brain: 0.51 % of the injected dose
[3]; 180 min, iv
  Ratio brain/blood: 2.35
  Ratio heart/blood: 1.60
  Tissue distribution, blood: 0.07 % dose/g of tissue
  Tissue distribution, brain: 0.15 % dose/g of tissue
  Tissue distribution, gonads: 0.16 % dose/g of tissue
  Tissue distribution, heart: 0.10 % dose/g of tissue
  Tissue distribution, kidney: 0.50 % dose/g of tissue
  Tissue distribution, liver: 1.18 % dose/g of tissue
  Tissue distribution, lung: 0.39 % dose/g of tissue
  Tissue distribution, muscle: 0.08 % dose/g of tissue
  Tissue distribution, spleen: 0.44 % dose/g of tissue
  Tissue distribution, thyroid: 13.13 % dose/g of tissue
[3]; 3 hrs post-injection, iv
  radioactivity in brain: 0.39 % of the injected dose
[3]; beginning to 3 hrs post-injection
  radioactivity in thyroid (in words): moderate at the beginning but increased significantly by 3 hrs post-injection
Vesamicol receptor [4]
  brain regional distribution: cortex, hippocampus and cerebellum: Moderate levels of activity
  brain regional distribution: interpeduncular nucleus, olfactory tubercle, nucleus accumbens, amygdala, caudate-putamen, nuclei of fifth and seventh cranial nerves: high levels of radioactivity

## OCCN1CCC(c2ccccc2)CC1 [Compound 4a]
Vesicular ACh transport
  inhibition of vesicular ACh transport / activity (in words): substantially diminished activity

## CCC(O)CN1CCC(c2ccccc2)CC1 (centres unmarked) [Compound 4b]
Vesicular ACh transport
  inhibition of vesicular ACh transport / activity (in words): substantially diminished activity
Vesamicol receptor [1]; 4b relative to 4a
  increase in activity: 30 fold
